test system: MDA-MB-231 viability, CellTiter-Glo luminescence, 72 h; assay: MDA-MB-231 breast cancer cell growth inhibition, dose response, CellTiter-Glo luminescence, dry powder, set 2 (AID 588840); settings: not given

Row | SMILES | AC50 [nM]
1 | Cc1csc(NC(=O)c2ccc(COc3cccc(F)c3)o2)n1 | 480

test system: not listed separately; assay: as above; settings: MDA-MB-231 viability, CellTiter-Glo luminescence, 72 h; at 32 µM (top of the series)

Row | SMILES | viability fraction (lower = toxic) [%]
2 | CC(C)c1ccc(/C=C/C(=O)NC2=NCCS2)cc1 | 34.6
3 | Cc1ccc(/C=C/C(=O)NC2=NCCS2)cc1 | 114
4 | O=C(/C=C/c1ccc(-c2ccccc2)cc1)NC1=NCCS1 | 76.4
5 | O=C(NC1CCCC1)c1ccc(COc2ccccc2)o1 | 101
6 | Cc1csc(NC(=O)c2ccc(COc3ccccc3)o2)n1 | 72.4
7 | COc1ccc(/C=C/C(=O)NC2=NCCS2)c(OC)c1 | 118

From PubChem BioAssay AID588840 (Broad Institute, 2011)
